Experimental data as given in patent US20250127937A1, “FAP INHIBITOR” (UNIVERSITÄT HEIDELBERG, priority 2018, published 2025).

Assays:
Capan-2 tumor xenografts = test: Dynamic small-animal PET, two-tissue compartment model, Capan-2 xenografts; type: in vivo, mouse; details: 68Ga-FAPI-02, Capan-2, − comp.
Description: (§1) For in vivo experiments, 8 week old BALB/c nu/nu mice (Charles River) were subcutaneously inoculated into the right trunk with 5×10^6 with HT-1080-FAP, Capan-2 or SK-LMS-1 cells, respectively. When the size of the tumor reached approximately 1 cm^3, the radiolabeled compound was injected via the tail vein (˜10 MBq for small-animal PET imaging; ˜1 MBq for organ distribution). PET imaging was performed up to 140 min after intravenous injection of 1 MBq of Ga-68 labeled compound per mouse using the Inveon PET small-animal PET scanner (Siemens). Images were reconstructed iteratively using the 3D-OSEM+MAP method and were converted to standardized uptake value (SUV) images. Quantification was done using a ROI technique and expressed as SUV mean. For organ distribution of Lu-177 labeled compound (approx. […] per mouse), the animals (n=3 for each time point) were sacrificed after indicated time points (from 30 min to 24 h). The distributed radioactivity was measured in all dissected organs and in blood using a γ-counter (Cobra Autogamma, Packard). The values are expressed as percentage of injected dose per gram of tissue (% ID/g).
(§2) For pharmakokinetic modeling the transport constant K1 and the rate constants k2-k4 were calculated using a two-tissue compartment model implemented in the PMOD software, taking into account the vascular fraction (vB), which is associated with the volume of blood exchanging with tissue in a VOI. The rate constants that describe the compartmental fluxes include k1 (binding to the receptor), k2 (detachment) as well as k3 (internalization) and k4 (efflux) in the tumor tissue. In this model the fractional volume of distribution (DV=K1/k2) is the proportion of the region of interest in which […] is distributed.

[1] = system: HT-1080-FAP tumor xenografts; test: Dynamic small-animal PET, two-tissue compartment model, HT-1080-FAP xenografts; type: in vivo, mouse; details: 68Ga-FAPI-02, HT-1080-FAP
Description: as §1, §2

[2] = system: HT-1080-FAP tumor xenografts; test: Organ distribution ex vivo in HT-1080-FAP tumor bearing nude mice; design: species or system mouse
Description: as §1

[3] = system: tumor lesions and normal tissue of cancer patients; test: Clinical PET/CT imaging in cancer patients (SUV); type: in vivo, human
Description: Diagnostic imaging of more than 100 patients was performed under the conditions of the updated declaration of Helsinki, § 37 (Unproven interventions in clinical practice) and in accordance to the German Pharmaceuticals Law § 13 (2b) for medical reasons using either ^68Ga-FAPI-02 or -04, which was applied intravenously (20 nmol, 122-336 MBq), 10 min, 1 and 3 hours post tracer administration. Variation of injected radiotracer activity is due to the short half-life of ^68Ga and the variable elution efficiencies obtained during the lifetime of the ^68Ge/^68Ga generator. […] The PET/CT scans were performed with a Biograph mCT Flow™ PET/CT-Scanner (Siemens Medical Solution) using the following parameters: slice thickness of 5 mm, increment of 3-4 mm, soft-tissue reconstruction kernel, care dose. Immediately after CT scanning, a whole-body PET was acquired in 3D (matrix 200×200) in FlowMotion™ with 0.7 cm/min. The emission data were corrected for random, scatter and decay. Reconstruction was conducted with an ordered subset expectation maximisation (OSEM) algorithm with 2 iterations/21 subsets and Gauss-filtered to a transaxial resolution of 5 mm at full-width half-maximum (FWHM). Attenuation correction was performed using the low-dose non-enhanced CT data. The quantitative assessment of standardized uptake values (SUV) was done using a region of interest technique.
For the normal tissue of 16 organs, a 2 cm Spheric-VOI was placed in the parenchyma, for tumor lesions a threshold segmented VOI was used to quantify SUVmean/max^3.

[4] = Lu-177 labeled, 1 h after i.v., HT-1080-FAP, mean ± SD, n = 3
[5] = 1 h p.i., intra-individual comparison of 6 patients

Flux (Capan-2 tumor xenografts): 0.03 ml/ccm/min
Vs (ratio of specific binding concentration to total parent at equilibrium) (Capan-2 tumor xenografts): 0.93 ml/ccm
Vt (total distribution volume) (Capan-2 tumor xenografts): 1.44 ml/ccm
k1 (Capan-2 tumor xenografts): 0.08 ml/ccm/min
k2 (Capan-2 tumor xenografts): 0.16 min⁻¹
k3 (Capan-2 tumor xenografts): 0.08 min⁻¹
k4 (Capan-2 tumor xenografts): 0.05 min⁻¹
vB (vascular fraction) (Capan-2 tumor xenografts): 0.08 l/l
Flux ([1]; + comp.): 0.01 ml/ccm/min
Vs (ratio of specific binding concentration to total parent at equilibrium) ([1]; + comp.): 0.18 ml/ccm
Vt (total distribution volume) ([1]; + comp.): 0.48 ml/ccm
k1 ([1]; + comp.): 0.10 ml/ccm/min
k2 ([1]; + comp.): 0.32 min⁻¹
k3 ([1]; + comp.): 0.04 min⁻¹
k4 ([1]; + comp.): 0.07 min⁻¹
vB (vascular fraction) ([1]; + comp.): 0.04 l/l
Flux ([1]; − comp.): 0.03 ml/ccm/min
Vs (ratio of specific binding concentration to total parent at equilibrium) ([1]; − comp.): 2.31 ml/ccm
Vt (total distribution volume) ([1]; − comp.): 0.87 ml/ccm
k1 ([1]; − comp.): 0.07 ml/ccm/min
k2 ([1]; − comp.): 0.13 min⁻¹
k3 ([1]; − comp.): 0.1 min⁻¹
k4 ([1]; − comp.): 0.02 min⁻¹
vB (vascular fraction) ([1]; − comp.): 0.04 l/l
highest enrichment within the FAP-expressing tumor ([2]; 177Lu labeled, after 1 h): 4.5 % ID/g
Tumor uptake 1 h ([2]; HT-1080-FAP tumor bearing nude mice, 1 h, mean ± SD, n = 3): 4.5 ± 0.82 % ID/g
Tumor uptake 4 h ([2]; HT-1080-FAP tumor bearing nude mice, 4 h, mean ± SD, n = 3): 4.0 ± 0.56 % ID/g
Tumor uptake 24 h ([2]; HT-1080-FAP tumor bearing nude mice, 24 h, mean ± SD, n = 3): 1.12 ± 0.13 % ID/g
Blood uptake [2, 4]: 1.20 ± 0.178 % ID/g
Brain uptake [2, 4]: 0.06 ± 0.006 % ID/g
Heart uptake [2, 4]: 0.56 ± 0.085 % ID/g
Intestines uptake [2, 4]: 0.31 ± 0.046 % ID/g
Kidneys uptake [2, 4]: 1.60 ± 0.075 % ID/g
Liver uptake [2, 4]: 0.45 ± 0.074 % ID/g
Lungs uptake [2, 4]: 1.02 ± 0.152 % ID/g
Muscle uptake [2, 4]: 1.17 ± 0.332 % ID/g
Spleen uptake [2, 4]: 0.38 ± 0.051 % ID/g
Tumor uptake [2, 4]: 4.51 ± 0.816 % ID/g
background uptake in brain [3, 5]: 0.32
background uptake in liver [3, 5]: 1.69
background uptake in oral/pharyngeal mucosa [3, 5]: 2.57
decrease of tumor uptake (washout) ([3]; from 1 h to 3 h p.i., patients): 75%
Structure (SMILES): N#C[C@@H]1CCCN1C(=O)CNC(=O)c1ccnc2ccc(OCCCN3CCN(C(=O)CN4CCN(CC(=O)O)CCN(CC(=O)O)CCN(CC(=O)O)CC4)CC3)cc12 [FAPI-02]
maximum SUV values in primary tumor, lymph node and bone metastases ([3]; 68Ga labeled, 1 h after i.v. administration, patients): ≤ 48.0
tumor uptake, average SUV max [3, 5]: 7.37
